Assay results from patent US20230382925A1, “MODULATORS OF CYSTIC FIBROSIS TRANSMEMBRANE CONDUCTANCE REGULATOR” (VERTEX PHARMACEUTICALS INCORPORATED, priority 2020, published 2023).
pEC50: −log10 of the molar value. Like-named read-outs stand apart in the source and are kept apart here.

Target: CFTR (Homo sapiens, UniProt P13569)
Test: Membrane Potential Dye, Enteroid Assay B
Format: cell-based
How it was run: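 Human intestinal enteroid cells exposed to compound 18-24 h at 37 °C, then loaded with methyl oxonol membrane-potential dye plus CaCC blockers. Chloride transport triggered in chloride-free buffer with 10 μM forskolin, 100 μM IBMX, 300 nM Compound III; fluorescence read 15 min, expressed as % of triple-corrector/potentiator combination control.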

CFTR, sequence (P13569 with tags, fused parts or gaps DEL508-508): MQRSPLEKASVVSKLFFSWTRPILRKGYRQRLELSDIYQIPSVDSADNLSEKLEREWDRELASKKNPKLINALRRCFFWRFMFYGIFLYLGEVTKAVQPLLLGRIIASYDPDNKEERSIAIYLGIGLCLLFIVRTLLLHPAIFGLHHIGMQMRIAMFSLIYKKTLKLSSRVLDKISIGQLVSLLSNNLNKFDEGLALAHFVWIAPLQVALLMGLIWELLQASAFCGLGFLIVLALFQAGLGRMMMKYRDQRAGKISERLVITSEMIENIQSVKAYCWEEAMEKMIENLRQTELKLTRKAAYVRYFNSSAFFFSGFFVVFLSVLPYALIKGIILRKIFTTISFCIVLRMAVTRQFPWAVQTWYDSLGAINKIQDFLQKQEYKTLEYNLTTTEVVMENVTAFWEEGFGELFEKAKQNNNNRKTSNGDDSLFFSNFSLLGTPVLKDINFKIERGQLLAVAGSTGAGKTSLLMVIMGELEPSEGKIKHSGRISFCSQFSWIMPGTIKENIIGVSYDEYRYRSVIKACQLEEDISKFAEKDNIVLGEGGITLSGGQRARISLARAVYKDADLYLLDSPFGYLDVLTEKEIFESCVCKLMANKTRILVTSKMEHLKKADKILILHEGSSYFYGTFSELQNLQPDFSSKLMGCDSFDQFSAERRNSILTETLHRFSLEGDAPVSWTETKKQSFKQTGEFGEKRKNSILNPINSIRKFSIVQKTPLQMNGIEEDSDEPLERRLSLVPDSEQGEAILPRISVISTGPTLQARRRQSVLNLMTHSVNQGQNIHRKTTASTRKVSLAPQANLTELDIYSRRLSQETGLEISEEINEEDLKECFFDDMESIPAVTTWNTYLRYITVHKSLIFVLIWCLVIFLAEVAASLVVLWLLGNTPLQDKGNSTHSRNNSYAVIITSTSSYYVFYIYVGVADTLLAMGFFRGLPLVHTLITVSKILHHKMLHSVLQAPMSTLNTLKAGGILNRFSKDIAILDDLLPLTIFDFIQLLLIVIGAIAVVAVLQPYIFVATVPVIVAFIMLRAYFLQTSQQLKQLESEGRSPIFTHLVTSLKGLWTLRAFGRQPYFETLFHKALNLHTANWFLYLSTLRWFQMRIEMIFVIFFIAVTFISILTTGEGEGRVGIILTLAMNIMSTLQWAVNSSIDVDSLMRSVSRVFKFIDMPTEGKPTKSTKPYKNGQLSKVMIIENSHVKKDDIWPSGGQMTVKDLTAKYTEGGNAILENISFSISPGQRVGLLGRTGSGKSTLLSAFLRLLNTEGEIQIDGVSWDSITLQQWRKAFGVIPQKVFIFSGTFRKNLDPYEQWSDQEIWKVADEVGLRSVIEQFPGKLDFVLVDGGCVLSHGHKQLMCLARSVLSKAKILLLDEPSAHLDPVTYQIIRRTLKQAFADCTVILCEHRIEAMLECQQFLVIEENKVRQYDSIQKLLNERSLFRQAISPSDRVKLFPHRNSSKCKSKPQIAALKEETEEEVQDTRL

Row | Structure (SMILES) | Ent. B Max Activity (%) (Table 9) | pEC50 (Table 9, read-out: Ent. B EC50) | further results
1 | Cc1cccc(C)c1-c1cc2nc(n1)NS(=O)(=O)c1cccc(c1)C(=O)N([C@H]1C[C@@H](N3CC(N(C)C)C3)C1)[C@H](CC(C)C)CO2 [Compound 66, (11R)-12-[3-[3-(Dimethylamino)azetidin-1-yl]cyclobutyl]-6-(2,6-dimethylphenyl)-11-isobutyl-2,2-dioxo-9-oxa-2λ^6-thia-3,5,12,19-tetrazatricyclo[12.3.1.14,8]nonadeca-1(18),4(19),5,7,14,16-hexaen-13-one] | +++ (+++ is >60%) | > 6.00 | –
2 | Cc1cccc(C)c1-c1cc2nc(n1)NS(=O)(=O)c1cccc(c1)C(=O)N([C@H]1C[C@@H](N(C)CCCO)C1)[C@H](CC(C)C)CO2 [Compound 67, (11R)-6-(2,6-Dimethylphenyl)-12-[3-[3-hydroxypropyl(methyl)amino]cyclobutyl]-11-isobutyl-2,2-dioxo-9-oxa-2λ^6-thia-3,5,12,19-tetrazatricyclo[12.3.1.14,8]nonadeca-1(18),4(19),5,7,14,16-hexaen-13-one] | +++ (+++ is >60%) | > 6.00 | –
3 | Cc1cccc(C)c1-c1cc2nc(n1)NS(=O)(=O)c1cccc(c1)C(=O)N(C1CC(N(C)[C@H](C)C(F)(F)F)C1)[C@H](CC(C)C)CO2 (stereo partly drawn) [Compound 68, (11R)-6-(2,6-Dimethylphenyl)-11-isobutyl-12-[3-[methyl-[(1R)-2,2,2-trifluoro-1-methyl-ethyl]amino]cyclobutyl]-2,2-dioxo-9-oxa-2λ^6-thia-3,5,12,19-tetrazatricyclo[12.3.1.14,8]nonadeca-1(18),4(19),5,7,14,16-hexaen-13-one] | ++ (++ is 30-60%) | > 6.00 | –
4 | Cc1cccc(C)c1-c1cc2nc(n1)NS(=O)(=O)c1cccc(c1)C(=O)N(C1CC(N(C)CCC(C)(C)C)C1)[C@H](CC(C)C)CO2 (stereo partly drawn) [Compound 69, (11R)-12-[3-[3,3-dimethylbutyl(methyl)amino]cyclobutyl]-6-(2,6-dimethylphenyl)-11-isobutyl-2,2-dioxo-9-oxa-2λ^6-thia-3,5,12,19-tetrazatricyclo[12.3.1.14,8]nonadeca-1(18),4(19),5,7,14,16-hexaen-13-one] | +++ (+++ is >60%) | > 6.00 | –
5 | Cc1cccc(C)c1-c1cc2nc(n1)NS(=O)(=O)c1cccc(c1)C(=O)N(C1CC(NC3CCC(C)(C)CC3)C1)[C@H](CC(C)C)CO2 (stereo partly drawn) [Compound 70, (11R)-12-[3-[(4,4-Dimethylcyclohexyl)amino]cyclobutyl]-6-(2,6-dimethylphenyl)-11-isobutyl-2,2-dioxo-9-oxa-2λ^6-thia-3,5,12,19-tetrazatricyclo[12.3.1.14,8]nonadeca-1(18),4(19),5,7,14,16-hexaen-13-one] | +++ (+++ is >60%) | > 6.00 | –
6 | Cc1cccc(C)c1-c1cc2nc(n1)NS(=O)(=O)c1cccc(c1)C(=O)N(C1CC(NC3CCOCC3)C1)[C@H](CC(C)C)CO2 (stereo partly drawn) [Compound 71, (11R)-6-(2,6-dimethylphenyl)-11-isobutyl-2,2-dioxo-12-[3-(tetrahydropyran-4-ylamino)cyclobutyl]-9-oxa-2λ^6-thia-3,5,12,19-tetrazatricyclo[12.3.1.14,8]nonadeca-1(18),4(19),5,7,14,16-hexaen-13-one] | +++ (+++ is >60%) | > 6.00 | –
7 | Cc1cccc(C)c1-c1cc2nc(n1)NS(=O)(=O)c1cccc(c1)C(=O)N(C1CC(N3CCS(=O)(=O)CC3)C1)[C@H](CC(C)C)CO2 (stereo partly drawn) [Compound 72, (11R)-6-(2,6-dimethylphenyl)-12-[3-(1,1-dioxo-1,4-thiazinan-4-yl)cyclobutyl]-11-isobutyl-2,2-dioxo-9-oxa-2λ^6-thia-3,5,12,19-tetrazatricyclo[12.3.1.14,8]nonadeca-1(18),4(19),5,7,14,16-hexaen-13-one] | +++ (+++ is >60%) | > 6.00 | –
8 | Cc1cccc(C)c1-c1cc2nc(n1)NS(=O)(=O)c1cccc(c1)C(=O)N(C1CC(NC34CC(C3)C4)C1)[C@H](CC(C)C)CO2 (stereo partly drawn) [Compound 73, (11R)-12-[3-(1-Bicyclo[1.1.1]pentanylamino)cyclobutyl]-6-(2,6-dimethylphenyl)-11-isobutyl-2,2-dioxo-9-oxa-2λ^6-thia-3,5,12,19-tetrazatricyclo[12.3.1.14,8]nonadeca-1(18),4(19),5,7,14,16-hexaen-13-one] | +++ (+++ is >60%) | > 6.00 | –
9 | [H][C@]1(N2C(=O)c3cccc(c3)S(=O)(=O)Nc3nc(cc(-c4c(C)cccc4C)n3)OC[C@H]2CC2(C(F)(F)F)CC2)C[C@@]2(C[C@H](NC(=O)OC(C)C)C2)C1 (stereo partly drawn) [Compound 78, Isopropyl ((2S,4s,6S)-6-((R)-1^6-(2,6-dimethylphenyl)-3,3-dioxido-5-oxo-7-((1-(trifluoromethyl)cyclopropyl)methyl)-9-oxa-3-thia-2,6-diaza-1(2,4)-pyrimidina-4(1,3)-benzenacyclononaphane-6-yl)spiro[3.3]heptan-2-yl)carbamate] | – | – | Ent. B Max Activity (%): +++ (+++ is >60%); pEC50 (read-out: Ent. B EC50): > 6.00
10 | Cc1cccc(C)c1-c1cc2nc(n1)NS(=O)(=O)c1cccc(c1)C(=O)N([C@H]1C[C@]3(C[C@H](NC(=O)OC(C)C)C3)C1)[C@H](CC1(C(F)(F)F)CC1)CO2 (stereo partly drawn) [Compound 79, Isopropyl ((2R,4r,6R)-6-((R)-1^6-(2,6-dimethylphenyl)-3,3-dioxido-5-oxo-7-((1-(trifluoromethyl)cyclopropyl)methyl)-9-oxa-3-thia-2,6-diaza-1(2,4)-pyrimidina-4(1,3)-benzenacyclononaphane-6-yl)spiro[3.3]heptan-2-yl)carbamate] | – | – | Ent. B Max Activity (%): +++ (+++ is >60%); pEC50 (read-out: Ent. B EC50): > 6.00
11 | Cc1cccc(C)c1-c1cc2nc(n1)NS(=O)(=O)c1cccc(c1)C(=O)N([C@H]1C[C@]3(C[C@@H](N)C3)C1)[C@H](CC1(C(F)(F)F)CC1)CO2 (stereo partly drawn) [Compound 80, (R)-6-((2S,4s,6S)-6-Aminospiro[3.3]heptan-2-yl)-1^6-(2,6-dimethylphenyl)-7-((1-(trifluoromethyl)cyclopropyl)methyl)-9-oxa-3-thia-2,6-diaza-1(2,4)-pyrimidina-4(1,3)-benzenacyclononaphan-5-one 3,3-dioxide] | +++ (+++ is >60%) | > 6.00 | –
12 | Cc1cccc(C)c1-c1cc2nc(n1)NS(=O)(=O)c1cccc(c1)C(=O)N([C@H]1C[C@@]3(C[C@@H](N)C3)C1)[C@H](CC1(C(F)(F)F)CC1)CO2 (stereo partly drawn) [Compound 81, (R)-6-((2R,4r,6R)-6-Aminospiro[3.3]heptan-2-yl)-1^6-(2,6-dimethylphenyl)-7-((1-(trifluoromethyl)cyclopropyl)methyl)-9-oxa-3-thia-2,6-diaza-1(2,4)-pyrimidina-4(1,3)-benzenacyclononaphan-5-one 3,3-dioxide] | +++ (+++ is >60%) | > 6.00 | –
13 | COCCN(C)[C@H]1C[C@]2(C1)C[C@H](N1C(=O)c3cccc(c3)S(=O)(=O)Nc3nc(cc(-c4c(C)cccc4C)n3)OC[C@H]1CC1(C(F)(F)F)CC1)C2 (stereo partly drawn) [Compound 82, (R)-1^6-(2,6-Dimethylphenyl)-6-((2S,4s,6S)-6-((2-methoxyethyl)(methyl)amino)spiro[3.3]heptan-2-yl)-7-((1-(trifluoromethyl)cyclopropyl)methyl)-9-oxa-3-thia-2,6-diaza-1(2,4)-pyrimidina-4(1,3)-benzenacyclononaphan-5-one 3,3-dioxide] | +++ (+++ is >60%) | > 6.00 | –
14 | COCCN(C)[C@H]1C[C@@]2(C1)C[C@H](N1C(=O)c3cccc(c3)S(=O)(=O)Nc3nc(cc(-c4c(C)cccc4C)n3)OC[C@H]1CC1(C(F)(F)F)CC1)C2 (stereo partly drawn) [Compound 83, (R)-16-(2,6-Dimethylphenyl)-6-((2R,4r,6R)-6-((2-methoxyethyl)(methyl)amino)spiro[3.3]heptan-2-yl)-7-((1-(trifluoromethyl)cyclopropyl)methyl)-9-oxa-3-thia-2,6-diaza-1(2,4)-pyrimidina-4(1,3)-benzenacyclononaphan-5-one 3,3-dioxide] | +++ (+++ is >60%) | > 6.00 | –
15 | CC(=O)N[C@H]1C[C@@]2(C1)C[C@H](N1C(=O)c3cccc(c3)S(=O)(=O)Nc3nc(cc(-c4c(C)cccc4C)n3)OC[C@H]1CC1(C(F)(F)F)CC1)C2 (stereo partly drawn) [Compound 85, N-((2R,4r,6R)-6-((R)-1^6-(2,6-Dimethylphenyl)-3,3-dioxido-5-oxo-7-((1-(trifluoromethyl)cyclopropyl)methyl)-9-oxa-3-thia-2,6-diaza-1(2,4)-pyrimidina-4(1,3)-benzenacyclononaphane-6-yl)spiro[3.3]heptan-2-yl)acetamide] | +++ (+++ is >60%) | > 6.00 | –
16 | COC(=O)NC1CC2(C1)CC(N1C(=O)c3cccc(c3)S(=O)(=O)Nc3nc(cc(-c4c(C)cccc4C)n3)OC[C@H]1CC(C)(C)C)C2 (stereo partly drawn) [Compound 88, Methyl ((2S,4s,6S)-6-((R)-1^6-(2,6-dimethylphenyl)-7-neopentyl-3,3-dioxido-5-oxo-9-oxa-3-thia-2,6-diaza-1(2,4)-pyrimidina-4(1,3)-benzenacyclononaphane-6-yl)spiro[3.3]heptan-2-yl)carbamate] | +++ (+++ is >60%) | > 6.00 | –
17 | Cc1cccc(C)c1-c1cc2nc(n1)NS(=O)(=O)c1cccc(c1)C(=O)N(C1CC3(CC(NC(=O)OC(C)C)C3)C1)[C@H](CC(C)(C)C)CO2 (stereo partly drawn) [Compound 92, Isopropyl ((2S,4s,6S)-6-((R)-1^6-(2,6-dimethylphenyl)-7-neopentyl-3,3-dioxido-5-oxo-9-oxa-3-thia-2,6-diaza-1(2,4)-pyrimidina-4(1,3)-benzenacyclononaphane-6-yl)spiro[3.3]heptan-2-yl)carbamate] | +++ (+++ is >60%) | > 6.00 | –
18 | COC(=O)N(C)C1CC2(C1)CC(N1C(=O)c3cccc(c3)S(=O)(=O)Nc3nc(cc(-c4c(C)cccc4C)n3)OC[C@H]1CC(C)(C)C)C2 (stereo partly drawn) [Compound 94, Methyl ((2R,4r,6R)-6-((R)-1^6-(2,6-dimethylphenyl)-7-neopentyl-3,3-dioxido-5-oxo-9-oxa-3-thia-2,6-diaza-1(2,4)-pyrimidina-4(1,3)-benzenacyclononaphane-6-yl)spiro[3.3]heptan-2-yl)(methyl)carbamate] | – | – | Ent. B Max Activity (%) (Table 10): ++ (++ is 30-60%); pEC50 (Table 10, read-out: Ent. B EC50): > 6.00
